For test [1], the target named is T1, IRAK4 (Homo sapiens, UniProt Q9NWZ3).
T1 sequence (Q9NWZ3 1-460): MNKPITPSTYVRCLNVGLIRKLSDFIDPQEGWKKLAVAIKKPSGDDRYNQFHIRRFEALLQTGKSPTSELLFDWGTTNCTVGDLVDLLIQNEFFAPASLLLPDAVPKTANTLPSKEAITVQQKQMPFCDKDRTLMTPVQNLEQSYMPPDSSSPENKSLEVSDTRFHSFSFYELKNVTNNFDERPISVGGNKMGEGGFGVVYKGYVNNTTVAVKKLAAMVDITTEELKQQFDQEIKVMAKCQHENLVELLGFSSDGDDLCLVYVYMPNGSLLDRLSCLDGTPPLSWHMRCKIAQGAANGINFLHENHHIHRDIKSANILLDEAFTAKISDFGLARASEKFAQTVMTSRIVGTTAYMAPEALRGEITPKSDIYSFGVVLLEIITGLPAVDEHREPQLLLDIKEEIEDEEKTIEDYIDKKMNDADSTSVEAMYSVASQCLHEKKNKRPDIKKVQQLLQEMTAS
The experiment in a line: Human Whole Blood IRAK4 Degradation (whole blood monocyte, flow cytometry). To be noted: human whole blood monocytes, read-out: IRAK4 degradation in whole blood: Average external Abs DC50. The format is cell-based. On the set-up: Whole blood was collected in heparinized tubes and plated on the same day as draw (day 0); from tissue; host or cells: human whole blood (CD14-positive monocytes gated by flow cytometry). How it is done:
Whole blood was collected in heparinized tubes and plated on the same day as draw (day 0). Whole blood was aliquoted into deep well plates. Compound plates were prepared and a 10 point, 5-fold dilution was performed with a final DMSO concentration of 0.1%. Compound was added to whole blood deep well plate, sealed and incubated at 37° C., 5% C02 for 20 hours (for 4 hour treatment, compounds were prepared and added the following day). Following the treatment incubation period (day 1), BD lyse fix (BD#558049) was added to the whole blood plate, placed on plate shaker for 30 seconds and incubated for 10 mins at room temperature. Whole blood was then spun down and washed two times with PBS/0.5% BSA, aspirated to pellet and placed into −80° C. freezer until further processing for flow. On the flow run day, whole blood plates were thawed and samples were transferred to PCR plates. The pre-perm staining cocktail (CD3 Ax488/CD8 BUV805/CD14 BUV395/CD16/56 BV711/CD19 BV785) was added to samples and incubated for 30 minutes at room temperature. Samples were washed two times and permeabilized with Methanol for 10 minutes at 4° C. […] Twenty hour dose curves were calculated using a 4 parameter logistic regression curve fit, no constraints (Top doses were removed if hook effects were observed and the bottom was constrained to 0). […]
Background: A flow cytometer gives signals particle by particle.

The target in test [2] is T1, IRAK4. Nature of the test: IRAK4 MSD Degradation in OCI-LY10. Details: endogenous in cells; host or cells: OCI-LY10. The note with it: OCI-LY10 cells, 4 hrs, Meso Scale Discovery. It is filed as cell-based. As for the experimental part: Degradation of IRAK4 in OCI-LY10 was quantitatively measured using Meso Scale Discovery technology. OCI-LY10 cells were seeded in 96-well plates (Corning 3799) with a density of 300,000 cells per well in 100 μL fresh media. Compounds were then added to the assay plates with a final top concentration of 1 to 10 μM in a 1:3 dilution series with total of 8 doses. The assay plates were then incubated for 4 to 24 hours at 37° C. under 5% CO2. The assay plates were then centrifuged for 5 minutes and the cell pellets were treated with 100 μL/well RIPA lysis buffer (Boston BioProducts BP-115D) with proteinase inhibitors. To prepare MSD assay plates (Meso Scale Discovery Catalog number L15XA-3), the plates were coated with […] capture antibody (mouse Anti-IRAK4 antibody [2H9], ab119942) in PBS, at 40 μL/well. […] The assay plates were then incubated at room temperature for 1 hour, washed 3 times with 150 μL/well TBST buffer, and 150 μL/well MSD reading buffer (Meso Scale Discovery catalog number R92TC-2) was added. The plates were then analyzed by a MSD reader (Meso Scale Discovery, Model Quick Plex SQ 120). The data was then analyzed by software Prism 7.0 from GraphPad and the dose-depended IRAK4 degradation were fit using a three-parameter logistic equation to calculate DC50. […]

Among the data in patent US20230122219A1, “IRAK DEGRADERS AND USES THEREOF” (Kymera Therapeutics, Inc., priority 2020, published 2023) are DC50 values, retold here.

As to `CN(C[C@H]1CC[C@H](n2cc(NC(=O)c3cnn4cccnc34)c(C(F)F)n2)CC1)C1CCN(c2cccc3c2n(C)c(=O)n3C2CCC(=O)NC2=O)CC1` (some centres unmarked) [I-1], the DC50 at IRAK4 [1] and on IRAK4 [2] was less than 0.05 µM throughout.

The DC50 is the midpoint of the concentration-degradation curve.
